# Test results as given in patent US4794188A, “Certain unsymmetrical quinolinyl ethers having anti-inflammatory and anti-allergic activity” (USV Pharmaceutical Corporation, priority 1985, dated 1988).
# Target: T1, 5-LOX (Homo sapiens, UniProt P09917)
# T1 sequence (P09917 1-674): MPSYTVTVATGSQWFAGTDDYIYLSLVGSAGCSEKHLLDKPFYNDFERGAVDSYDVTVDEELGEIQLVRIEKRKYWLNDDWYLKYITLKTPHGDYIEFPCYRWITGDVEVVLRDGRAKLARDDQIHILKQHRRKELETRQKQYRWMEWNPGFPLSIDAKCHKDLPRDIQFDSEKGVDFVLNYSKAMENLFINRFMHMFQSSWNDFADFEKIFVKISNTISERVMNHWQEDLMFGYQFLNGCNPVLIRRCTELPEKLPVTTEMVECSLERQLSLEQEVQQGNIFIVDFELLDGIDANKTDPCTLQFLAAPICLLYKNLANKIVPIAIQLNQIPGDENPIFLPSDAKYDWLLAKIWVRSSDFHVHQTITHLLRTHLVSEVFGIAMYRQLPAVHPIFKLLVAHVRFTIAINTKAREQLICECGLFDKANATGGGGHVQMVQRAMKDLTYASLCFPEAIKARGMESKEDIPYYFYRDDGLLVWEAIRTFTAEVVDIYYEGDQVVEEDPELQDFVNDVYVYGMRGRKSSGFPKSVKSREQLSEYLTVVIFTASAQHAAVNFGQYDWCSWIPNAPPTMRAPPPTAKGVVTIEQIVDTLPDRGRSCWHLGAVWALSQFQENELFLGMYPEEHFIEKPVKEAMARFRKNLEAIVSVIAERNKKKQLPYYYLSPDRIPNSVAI
# Test: 5-LOX inhibition (5-LOX I50, Table I)
# Format: biochemical
row,SMILES,IC50
1,CCCCCC(O)c1cccc(OCc2ccncc2)c1 (stereo not shown),3000 nM
2,CCCCC(C)C(O)c1cccc(OCc2ccc3ccccc3n2)c1 (stereo not shown),200 nM
3,CCCCCC(O)c1ccc(Oc2ccc3ccccc3n2)cc1 (stereo not shown),350 nM
4,CCCCCC(O)c1cccc(OCc2cccnc2)c1 (stereo not shown),3000 nM
5,CC(=O)CC(O)c1cccc(OCc2ccc3ccccc3n2)c1 (stereo not shown),180 nM
6,"CCCCC=Cc1cccc(OCc2ccc3ccccc3n2)c1 [3-(CHCHC4 H9), 2-[3-(1-Hexenyl)phenoxymethyl]quinoline]",2400 nM
7,CC(O)(CCCCCOc1ccccc1)c1cccc(OCc2ccc3ccccc3n2)c1 (stereo not shown),800 nM
8,CCCCC(C)(C)C(O)c1cccc(OCc2ccc3ccccc3n2)c1 (stereo not shown),270 nM
9,OC(CCCCCOc1ccccc1)c1cccc(OCc2ccc3ccccc3n2)c1 (stereo not shown),600 nM
10,CCCCC(C)(C)C(C)(O)c1cccc(OCc2ccc3ccccc3n2)c1 (stereo not shown),270 nM
11,CCCCCC(O)c1cccc(OCc2cccc(C(=O)O)n2)c1 (stereo not shown),1900 nM
12,CCCCCC(NC)c1cccc(OCc2ccccn2)c1 (stereo not shown),2200 nM
13,CCCCCC(C)(O)c1cccc(OCc2ccc3ccccc3n2)c1 (stereo not shown),100 nM
14,CCCCCC(=O)c1cccc(OCc2ccc3ccccc3n2)c1,150 nM
15,CCCCCC(O)c1cccc(OCc2ccccn2)c1 (stereo not shown),500 nM
16,CCCCCC(O)c1cccc(OCc2cccc(C#N)n2)c1 (stereo not shown),30000 nM
17,CCCCCC(O)c1ccc(OCc2ccc3ccccc3n2)cc1 (stereo not shown),350 nM
18,OC(CCCCCOc1cccc(Cl)c1)c1cccc(OCc2ccc3ccccc3n2)c1 (stereo not shown),600 nM
19,CCCCCC(C)(O)c1cccc(OCc2ccccn2)c1 (stereo not shown),300 nM
